From patent US20110118127A1, “MARKER GENES FOR SCREENING OF DRUG-INDUCED TOXICITY IN HUMAN CELLS AND SCREENING METHOD USING THE SAME” (priority 2009, published 2011)
≈ marks a conversion by molar mass, not a printed value. Read-outs that look alike come from different tables or passages of the source.

What was measured:
in vitro [1] = conditions: human
Experimental: (§1) Human cell lines, BEAS-2B (ATCC, USA), JEG-3 (Korean Cell Line Bank, Korea) and HK-2 (Korean Cell Line Bank, Korea) were cultured in T 75 flask containing DMEM (Gibco-BRL, USA) supplemented with 10% FBS at the concentration of 5×10^5 cells/ml. THLE-3 cells were cultured in BEGM (Gibco-BRL, USA) supplemented with 10% FBS. HUVEC cells (ATCC, USA) were cultured in T 75 flask containing EGM-2 (CAMBREX, USA) supplemented with 5% FBS at the concentration of 5×10^5 cells/ml. […] Those drugs were dissolved in DMSO and water. The concentration of vehicle was up to 0.1% in every experiment.
(§2) MTT assay was performed with BEAS-2B, JEG-3, HK-2, THLE-3 and HUVEC according to the method of Mossman et al (J. Immunol. Methods, 65, 55-63, 1983). The cells (Table 2) in a 24-well plate were treated with each drug dissolved in DMSO or water. […] Then, the medium was eliminated and the formed formazan crystal was dissolved in 500 μl of DMSO. The mixture was aliquoted in a 96-well plate and OD54o was measured.

[2] = Cytotoxicity test (MTT assay) in THLE-3; conditions: human
Experimental: as §1, §2

HepG2 = assay: Cytotoxicity test (MTT assay) in HepG2; type: cell-based, human; conditions: Table 11; HepG2 40 × 10^4 cells/well, 48 h; read-out: Cytotoxicity IC20 Conc.
Experimental: (§3) The cells (Table 2) in a 24-well plate were treated with each drug dissolved in DMSO or water. 24 and 48 hours later, 5 mg/μl of MTT (3-[4,5-dimethylthiazol-2-yl]-2,5-diphenyltetra zolium bromide) was added thereto, followed by culture at 37 for 3 hours. Then, the medium was eliminated and the formed formazan crystal was dissolved in 500 μl of DMSO. The mixture was aliquoted in a 96-well plate and OD540 was measured.

in vitro [3] = conditions: human; remark: listed apart in the source
[4] = Cytotoxicity test (MTT assay) in HepG2; type: cell-based, human; conditions: human
Experimental: as §3

[5] = Cytotoxicity test (MTT assay) in HUVEC; type: cell-based; conditions: human, HUVEC 10 × 10^4 cells/well, survival inhibited 20%, read-out: Cytotoxicity IC20 Conc.
Experimental: as §1, §2

THLE-3 = assay: Cytotoxicity test (MTT assay) in THLE-3; conditions: read-out: Cytotoxicity IC20 Conc.; THLE-3 3 × 10^4 cells/well, 3 h; survival inhibited 20%
Experimental: as §1, §2

HK-2 [6] = conditions: human, 24 h
Experimental: (§4) Human cell lines, BEAS-2B (ATCC, USA), JEG-3 (Korean Cell Line Bank, Korea) and HK-2 (Korean Cell Line Bank, Korea) were cultured in T 75 flask containing DMEM (Gibco-BRL, USA) supplemented with 10% FBS at the concentration of 5×10^5 cells/ml. […] Those drugs were dissolved in DMSO and water. The concentration of vehicle was up to 0.1% in every experiment.
(§5) MTT assay was performed with BEAS-2B, JEG-3, HK-2, THLE-3 and HUVEC according to the method of Mossman et al (J. Immunol. Methods, 65, 55-63, 1983). The cells (Table 2) in a 24-well plate were treated with each drug dissolved in DMSO or water. 48 hours later, 5 mg/ml of MTT (3-[4,5-dimethylthiazol-2-yl]-2,5-diphenyltetra zolium bromide) was added thereto, followed by culture at 37 for 3 hours. Then, the medium was eliminated and the formed formazan crystal was dissolved in 500 μl of DMSO. The mixture was aliquoted in a 96-well plate and OD54o was measured.
(§6) MTT assay was performed with BEAS-2B, JEG-3, HK-2 and HepG2 according to the method of Mossman et al (J. Immunol. Methods, 65, 55-63, 1983). The cells (Table 2) in a 24-well plate were treated with each drug dissolved in DMSO or water. 24 and 48 hours later, 5 mg/μl of MTT (3-[4,5-dimethylthiazol-2-yl]-2,5-diphenyltetra zolium bromide) was added thereto, followed by culture at 37 for 3 hours. […] The mixture was aliquoted in a 96-well plate and OD540 was measured.

JEG-3 [7] = conditions: human, 48 h
Experimental: as §4, §5
(§7) MTT assay was performed with BEAS-2B, JEG-3, HK-2 and HepG2 according to the method of Mossman et al (J. Immunol. Methods, 65, 55-63, 1983). The cells (Table 2) in a 24-well plate were treated with each drug dissolved in DMSO or water. 24 and 48 hours later, 5 mg/μl of MTT (3-[4,5-dimethylthiazol-2-yl]-2,5-diphenyltetra zolium bromide) was added thereto, followed by culture at 37 for 3 hours. Then, the medium was eliminated and the formed formazan crystal was dissolved in 500 μl of DMSO. The mixture was aliquoted in a 96-well plate and OD540 was measured.

JEG-3 [8] = assay: Cytotoxicity test (MTT assay) in JEG-3; conditions: Table 11; JEG-3 3 × 10^4 cells/well, 48 h
Experimental: as §4, §5, §7

HK-2 [9] = assay: Cytotoxicity test (MTT assay) in HK-2; conditions: HK-2 2.3 × 10^4 cells/well, 24 h; survival inhibited 30%
Experimental: as §4, §5, §6

## O=[N+]([O-])c1ccc2c(c1)Cc1ccccc1-2 [2-nitrofluorene]
In vitro [1]
  IC20 at 3 h: 80.8 µM

## O=[N+]([O-])c1cc[n+]([O-])c2ccccc12 [4-nitroquinoline-N-oxide]
[2]
  IC20 at 3 h: 0.83 µM

## CC(=O)Nc1ccc(O)cc1 [Acetaminophene]
HepG2
  IC20: 11000 µM

## CCCCc1oc2ccccc2c1C(=O)c1cc(I)c(OCCN(CC)CC)c(I)c1 [Amiodarone]
In vitro [3]
  IC20 at 48 h: 29.4 µM

## c1ccc2c(c1)cc1ccc3cccc4ccc2c1c34 [Benzo(a)pyrene]
[4]
  IC20 at 48 h: 8.35 µM

## NC(=O)N1c2ccccc2C=Cc2ccccc21 [Carbamazepine]
In vitro [3]
  IC20 at 48 h: 324 µM

## COc1cccc2c1C(=O)c1c(O)c3c(c(O)c1C2=O)C[C@@](O)(C(C)=O)C[C@@H]3O[C@H]1C[C@H](N)[C@H](O)[C@H](C)O1 [Daunorubicin]
[5]
  IC20 at 48 h: 0.191 µg/mL (≈ 0.362 µM)

## COc1cccc2c1C(=O)c1c(O)c3c(c(O)c1C2=O)C[C@@](O)(C(=O)CO)C[C@@H]3O[C@H]1C[C@H](N)[C@H](O)[C@H](C)O1 [Doxorubicin]
[5]
  IC20 at 48 h: 0.083 µg/mL (≈ 0.153 µM)

## NC(=O)/C(=C\c1ccc([N+](=O)[O-])o1)c1ccco1 [Furylfuramide]
THLE-3
  IC20: 243 µM

## CC(C)Cc1ccc(C(C)C(=O)O)cc1 (stereo not shown) [Ibuprofen]
HK-2 [6]
  Cytotoxicity IC30 Conc.: 1650 µg/mL

## CN(Cc1cnc2nc(N)nc(N)c2n1)c1ccc(C(=O)N[C@@H](CCC(=O)O)C(=O)O)cc1 [Methotrexate]
JEG-3 [7]
  Cytotoxicity IC30 Conc.: 4750 µM
In vitro [3]
  IC20 at 48 h: 0.144 µM

## COS(C)(=O)=O [Methylmethanesulfonate, methylmethanesulfonate]
In vitro [1]
  IC20 at 3 h: 510 µM

## CN(N=O)C(N)=O [N-nitroso-N-methylurea]
[2]
  IC20 at 3 h: 2090 µM

## O=C1CN(/N=C/c2ccc([N+](=O)[O-])o2)C(=O)N1 [Nitrofurantoin]
In vitro [3]
  IC20 at 48 h: 89.5 µM

## O=C1CCC(N2C(=O)c3ccccc3C2=O)C(=O)N1 (stereo not shown) [Thalidomide]
JEG-3 [7]
  Cytotoxicity IC30 Conc.: 4283 µM

## CCCC(CCC)C(=O)O [Valproic acid]
JEG-3 [7]
  Cytotoxicity IC30 Conc.: 7380 µM

## CC(=O)CC(c1ccccc1)c1c(O)c2ccccc2oc1=O (stereo not shown) [Warfarin]
JEG-3 [8]
  Cytotoxicity IC30 Conc.: 8160 µM

## Gentamycin
HK-2 [9]
  Cytotoxicity IC30 Conc.: 3440 µg/mL
